What was measured:
barnyardgrass (Ec) [1] = assay: Test Example 1: herbicidal effects by paddy field soil treatment; format: in vivo; details: 100 g of the active ingredient per 10 ares, 21st day after the application, index 0-5 of Table 47;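 also: grade of growth control; 5 = at least 90%; 4 = 70 to 90%; 3 = 50 to 70%; 2 = 30 to 50%; 1 = 10 to 30%; 0 = under 10%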
How it was run: (§1)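 Herbicidal effect was scored against a graded standard 21 days after treatment. Seeds were sown in puddled, leveled paddy soil flooded to 3 cm depth, and the active ingredient was applied at 100 g per 10 ares before greenhouse culture.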

bulrush (Sc) = assay: as above; format: in vivo; details: 100 g of the active ingredient per 10 ares, 21st day after the application, index 0-5 of Table 47;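 also: grade of growth control; 5 = at least 90%; 4 = 70 to 90%; 3 = 50 to 70%; 2 = 30 to 50%; 1 = 10 to 30%; 0 = under 10%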
How it was run: as §1

monochoria (Mo) = assay: as above; format: in vivo; details: 100 g of the active ingredient per 10 ares, 21st day after the application, index 0-5 of Table 47;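 also: grade of growth control; 5 = at least 90%; 4 = 70 to 90%; 3 = 50 to 70%; 2 = 30 to 50%; 1 = 10 to 30%; 0 = under 10%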
How it was run: as §1

Digitaria ciliaris (Di) = assay: Test Example 2: herbicidal effects by upland field soil treatment; format: in vivo; details: 100 g of the active ingredient per 10 ares, 21st day after the application, index 0-5 of Table 47;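 also: grade of growth control; 5 = at least 90%; 4 = 70 to 90%; 3 = 50 to 70%; 2 = 30 to 50%; 1 = 10 to 30%; 0 = under 10%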
From the text: (§2) (Test on Herbicidal Effects by Upland Field Soil Treatment)

barnyardgrass (Ec) [2] = assay: as above; format: in vivo; details: 100 g of the active ingredient per 10 ares, 21st day after the application, index 0-5 of Table 47
From the text: as §2

[3] = system: common lambsquarters (Ch); assay: as above; format: in vivo; details: 100 g of the active ingredient per 10 ares, 21st day after the application, index 0-5 of Table 47
From the text: as §2

pale smartweed (Po) [4] = assay: as above; format: in vivo; details: 100 g of the active ingredient per 10 ares, 21st day after the application, index 0-5 of Table 47
From the text: as §2

rice flatsedge (Ci) [5] = assay: as above; format: in vivo; details: 100 g of the active ingredient per 10 ares, 21st day after the application, index 0-5 of Table 47
From the text: as §2

slender amaranth (Am) [6] = assay: as above; format: in vivo; details: 100 g of the active ingredient per 10 ares, 21st day after the application, index 0-5 of Table 47
From the text: as §2

Diaitaria ciliaris (Di) = assay: Test Example 3: herbicidal effects by upland field foliage treatment; format: in vivo; design: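 grade of growth control; 5 = at least 90%; 4 = 70 to 90%; 3 = 50 to 70%; 2 = 30 to 50%; 1 = 10 to 30%; 0 = under 10%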; details: 100 g of the active ingredient per 10 ares, evaluated on the 14th day after treatment
How it was run: (§3)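 Weeds were sown in sand-filled pots (surface area: 120 cm^2), covered with soil and grown in a greenhouse for 2 weeks before foliar treatment. Plants then stayed in the greenhouse, and herbicidal effect was scored against graded standards on the 14th day after treatment.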

barnyardgrass (Ec) [7] = assay: as above; format: in vivo; design: scale not given here; details: 100 g of the active ingredient per 10 ares, evaluated on the 14th day after treatment
How it was run: as §3

[8] = system: common lambsquarters (Ch); assay: as above; format: in vivo; design: scale not given here; details: 100 g of the active ingredient per 10 ares, evaluated on the 14th day after treatment
How it was run: as §3

pale smartweed (Po) [9] = assay: as above; format: in vivo; design: scale not given here; details: 100 g of the active ingredient per 10 ares, evaluated on the 14th day after treatment
How it was run: as §3

rice flatsedge (Ci) [10] = assay: as above; format: in vivo; design: scale not given here; details: 100 g of the active ingredient per 10 ares, evaluated on the 14th day after treatment
How it was run: as §3

slender amaranth (Am) [11] = assay: as above; format: in vivo; design: scale not given here; details: 100 g of the active ingredient per 10 ares, evaluated on the 14th day after treatment
How it was run: as §3

cotton (Go) = assay: Test Example 4: crop plant selectivity by upland field soil treatment (cotton), phytotoxicity; format: in vivo; design: scale not given here; details: dose 6.3 g ai/10 a, evaluated 21st day after application
Method: (§4) (Test on Crop Plant Selectivity by Upland Field Soil Treatment)
(§5) In a plastic pot (surface area: 600 cm^2) filled with sand, cotton (Go), Diaitaria ciliaris (Di), green foxtail (Se), pale smartweed (Po), slender amaranth (Am), common lambsquarters (Ch) and China jute (Ab) were sown and covered with soil. […] The plants were then cultured in a green house, and the evaluation of the herbicidal effects and phytotoxicity was conducted on the 21st day after the application in accordance with the standards as identified in Table 47. Symbol—represents “not tested”.

China jute (Ab) [12] = assay: Test Example 4: crop plant selectivity by upland field soil treatment (cotton), herbicidal effects; format: in vivo; design: scale not given here; details: dose 6.3 g ai/10 a, evaluated 21st day after application
Method: as §4, §5

[13] = system: common lambsquarters (Ch); assay: as above; format: in vivo; design: scale not given here; details: dose 6.3 g ai/10 a, evaluated 21st day after application
Method: as §4, §5

green foxtail (Se) [14] = assay: as above; format: in vivo; design: scale not given here; details: dose 6.3 g ai/10 a, evaluated 21st day after application
Method: as §4, §5

pale smartweed (Po) [15] = assay: as above; format: in vivo; design: scale not given here; details: dose 6.3 g ai/10 a, evaluated 21st day after application
Method: as §4, §5

slender amaranth (Am) [16] = assay: as above; format: in vivo; design: scale not given here; details: dose 6.3 g ai/10 a, evaluated 21st day after application
Method: as §4, §5

soybean (Gl) = assay: Test Example 6: crop plant selectivity by upland field soil treatment (soybean), phytotoxicity; format: in vivo; design: scale not given here; details: dose 6.3 g ai/10a, 21st day after application
Method: as §4
(§6) In a plastic pot (surface area: 600 cm^2) filled with sand, soybean (Gl), Diaitaria ciliaris (Di), green foxtail (Se), Johnsongrass (So), pale smartweed (Po), slender amaranth (Am), common lambsquarters (Ch) and China jute (Ab) were sown and covered with soil. […] The plants were then cultured in a green house, and the evaluation of the herbicidal effects and phytotoxicity was conducted on the 21st day after the application in accordance with the standards as identified in Table 47. Symbol—represents “not tested”.

China jute (Ab) [17] = assay: Test Example 6: crop plant selectivity by upland field soil treatment (soybean), herbicidal effects; format: in vivo; design: scale not given here; details: dose 6.3 g ai/10a, 21st day after application
Method: as §4, §6

[18] = system: common lambsquarters (Ch); assay: as above; format: in vivo; design: scale not given here; details: dose 6.3 g ai/10a, 21st day after application
Method: as §4, §6

green foxtail (Se) [19] = assay: as above; format: in vivo; design: scale not given here; details: dose 6.3 g ai/10a, 21st day after application
Method: as §4, §6

pale smartweed (Po) [20] = assay: as above; format: in vivo; design: scale not given here; details: dose 6.3 g ai/10a, 21st day after application
Method: as §4, §6

slender amaranth (Am) [21] = assay: as above; format: in vivo; design: scale not given here; details: dose 6.3 g ai/10a, 21st day after application
Method: as §4, §6

corn (Ze) = assay: Test Example 7: crop plant selectivity by upland field soil treatment (corn), phytotoxicity; format: in vivo; design: scale not given here; details: dose 6.3 g ai/10a, 21st day after application
Method: as §4
(§7) In a plastic pot (surface area: 600 cm^2) filled with sand, corn (Ze), green foxtail (Se), pale smartweed (Po), slender amaranth (Am), common lambsquarters (Ch) and China jute (Ab) were sown and covered with soil. […] The plants were then cultured in a green house, and the evaluation of the herbicidal effects and phytotoxicity was conducted on the 21st day after the application in accordance with the standards as identified in Table 47.

China jute (Ab) [22] = assay: Test Example 7: crop plant selectivity by upland field soil treatment (corn), herbicidal effects; format: in vivo; design: scale not given here; details: dose 6.3 g ai/10a, 21st day after application
Method: as §4, §7

[23] = system: common lambsquarters (Ch); assay: as above; format: in vivo; design: scale not given here; details: dose 6.3 g ai/10a, 21st day after application
Method: as §4, §7

green foxtail (Se) [24] = assay: as above; format: in vivo; design: scale not given here; details: dose 6.3 g ai/10a, 21st day after application
Method: as §4, §7

pale smartweed (Po) [25] = assay: as above; format: in vivo; design: scale not given here; details: dose 6.3 g ai/10a, 21st day after application
Method: as §4, §7

slender amaranth (Am) [26] = assay: as above; format: in vivo; design: scale not given here; details: dose 6.3 g ai/10a, 21st day after application
Method: as §4, §7

wheat (Tr) = assay: Test Example 9: crop plant selectivity by upland field foliage treatment (wheat), phytotoxicity; details: dose 1.6 g ai/10a, 14th day after treatment
How it was run: (§8)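 Read-out: weed control and wheat injury, rated by a defined scoring standard 14 days after foliar application.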

China jute (Ab) [27] = assay: Test Example 9: crop plant selectivity by upland field foliage treatment (wheat), herbicidal effects; format: in vivo; design: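 grade of growth control; 5 = at least 90%; 4 = 70 to 90%; 3 = 50 to 70%; 2 = 30 to 50%; 1 = 10 to 30%; 0 = under 10%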; details: dose 1.6 g ai/10a, 14th day after treatment
How it was run: as §8

[28] = system: common lambsquarters (Ch); assay: as above; format: in vivo; design: scale not given here; details: dose 1.6 g ai/10a, 14th day after treatment
How it was run: as §8

pale smartweed (Po) [29] = assay: as above; format: in vivo; design: scale not given here; details: dose 1.6 g ai/10a, 14th day after treatment
How it was run: as §8

slender amaranth (Am) [30] = assay: as above; format: in vivo; design: scale not given here; details: dose 1.6 g ai/10a, 14th day after treatment
How it was run: as §8

Compound	Herbicidal effects Ec (barnyardgrass (Ec) [1])	Herbicidal effects Sc (bulrush (Sc))	Herbicidal effects Mo (monochoria (Mo))	Herbicidal effects Di (Digitaria ciliaris (Di))	Herbicidal effects Ec (barnyardgrass (Ec) [2])	Herbicidal effects Ch [3]	Herbicidal effects Po (pale smartweed (Po) [4])	Herbicidal effects Ci (rice flatsedge (Ci) [5])	Herbicidal effects Am (slender amaranth (Am) [6])	Herbicidal effects Di (Diaitaria ciliaris (Di))	Herbicidal effects Ec (barnyardgrass (Ec) [7])	Herbicidal effects Ch [8]	Herbicidal effects Po (pale smartweed (Po) [9])	Herbicidal effects Ci (rice flatsedge (Ci) [10])	Herbicidal effects Am (slender amaranth (Am) [11])	Phytotoxicity Go (cotton (Go))	Herbicidal effects Ab (China jute (Ab) [12])	Herbicidal effects Ch [13]	Herbicidal effects Se (green foxtail (Se) [14])	Herbicidal effects Po (pale smartweed (Po) [15])	further results
C#CC(CC)Oc1cc(-c2ccc(C(F)(F)F)n(C)c2=O)c(F)cc1Cl (racemic) [1-122]	5	5	5	5	5	5	5	5	5	5	5	5	5	5	5	0	5	5	5	5	Herbicidal effects Am (slender amaranth (Am) [16]): 5; Phytotoxicity Gl (soybean (Gl)): 2; Herbicidal effects Ab (China jute (Ab) [17]): 5; Herbicidal effects Ch [18]: 5; Herbicidal effects Se (green foxtail (Se) [19]): 5; Herbicidal effects Po (pale smartweed (Po) [20]): 5; Herbicidal effects Am (slender amaranth (Am) [21]): 5; Phytotoxicity Ze (corn (Ze)): 1; Herbicidal effects Ab (China jute (Ab) [22]): 5; Herbicidal effects Ch [23]: 5; Herbicidal effects Se (green foxtail (Se) [24]): 5; Herbicidal effects Po (pale smartweed (Po) [25]): 5; Herbicidal effects Am (slender amaranth (Am) [26]): 5; Phytotoxicity Tr (wheat (Tr)): 2; Herbicidal effects Ab (China jute (Ab) [27]): 5; Herbicidal effects Ch [28]: 5; Herbicidal effects Po (pale smartweed (Po) [29]): 5; Herbicidal effects Am (slender amaranth (Am) [30]): 5
CCOc1cc(-c2ccc(C(F)(F)F)n(C)c2=O)c(F)cc1Cl [1-150]	5	5	5	5	5	5	5	5	5	5	5	5	5	5	5	0	5	5	5	5	Herbicidal effects Am (slender amaranth (Am) [16]): 5; Phytotoxicity Gl (soybean (Gl)): 1; Herbicidal effects Ab (China jute (Ab) [17]): 5; Herbicidal effects Ch [18]: 5; Herbicidal effects Se (green foxtail (Se) [19]): 5; Herbicidal effects Po (pale smartweed (Po) [20]): 5; Herbicidal effects Am (slender amaranth (Am) [21]): 5; Phytotoxicity Ze (corn (Ze)): 1; Herbicidal effects Ab (China jute (Ab) [22]): 5; Herbicidal effects Ch [23]: 5; Herbicidal effects Se (green foxtail (Se) [24]): 5; Herbicidal effects Po (pale smartweed (Po) [25]): 5; Herbicidal effects Am (slender amaranth (Am) [26]): 5

— US6472348B1, “Pyridone derivatives and herbicides” (Kumiai Chemical Industry Co., Ltd., priority 1996, dated 2002)
